One compound from paper PMC4514850, “A Novel TGR5 Activator WB403 Promotes GLP-1 Secretion and Preserves Pancreatic β-Cells in Type 2 Diabetic Mice” (PLoS ONE, 2015) can be followed below.

The target of one data set is T1, hGPR120 (Homo sapiens, UniProt Q5NUL3).
T1 construct: expressed in transfected cells; host or cells: 293 cells, transient transfection with a human GPR120 expression vector
T1 sequence (Q5NUL3 1-361): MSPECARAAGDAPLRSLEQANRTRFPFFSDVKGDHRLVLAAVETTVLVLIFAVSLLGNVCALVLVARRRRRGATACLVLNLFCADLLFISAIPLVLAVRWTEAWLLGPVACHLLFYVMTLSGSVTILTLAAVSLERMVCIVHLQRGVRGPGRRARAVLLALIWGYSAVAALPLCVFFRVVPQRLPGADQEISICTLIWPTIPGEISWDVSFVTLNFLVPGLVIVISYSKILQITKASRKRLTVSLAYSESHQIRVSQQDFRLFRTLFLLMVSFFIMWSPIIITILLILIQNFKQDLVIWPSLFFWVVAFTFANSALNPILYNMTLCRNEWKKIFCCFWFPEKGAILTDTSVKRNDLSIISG
The experiment in a line: GPR120-dependent calcium mobilization in transfected 293 cells. The class given is cell-based. The conditions noted are these: 10 or 100 μmol/l. Here is the method:
For human TGR5 luciferase (luc) assay, 293T cells were co-transfected with pCRE-luc, pTGR5 (kind gift from Prof. Johan Auwerx, Ecole Polytechnique Fédérale de Lausanne, Lausanne, Switzerland) and pRenilla (Promega, USA). WB403 was added 5 h later. Cells were harvested after 16 h and subjected to luciferase analysis on Lumistar Optima chemiluminescent detector (BMG labtech, Germany). For cAMP testing, 293T cells transiently transfected with pTGR5 or pGPR119 (GeneCopoeia, USA) were washed by FBS-free DMEM, and stimulated with WB403 in FBS-free DMEM containing 3-isobutyl-1-methyl-xanthine (IBMX, Sigma). Cell lysates were collected 30 min later and used for cAMP ELISA assay. FLIPR Calcium 5 assay kit (Molecular Devices, USA) was used for calcium mobilization assay. 293-GPR40 stable cells (kindly provided by Prof. Naiming Zhou of Zhejiang University, Hanzhou, China) or 293 cells transient transfected with GPR120 were seeded at 50,000 cells per well in black-walled clear-bottomed 96-well plates (Costar). An equal volume of loading buffer containing Fluo 4-AM was added the following day and cells were incubated for 1 h before stimulated with compounds. Increase of the intracellular Ca^2+ concentration was monitored by Flexstation 3 system (Molecular Devices, USA).
Fig 6 Effect of WB403 on GPCRs related to GLP-1 secretion. (A) GPCR expression in human NCI-H716 and mouse MIN6 cells. […]

A further data set relates to ICR mice. The experiment in a line: 7-day acute toxicity test in ICR mice. Conditions: 6000 mg/kg group after 7-day acute toxicity test.
In a further data set the test system is db/db mice. The data set can be described thus: 4-week treatment of db/db mice. It is filed as in vivo. Here is the method:
Five-week old male ICR mice and db/db (C57BL BKS cg-M+/+ lepr-/-) mice were purchased from Shanghai SLAC Laboratory Animal Co., Ltd. (Shanghai, China). Mice were housed 4–5 per cage and allowed access to normal chow diet and autoclaved water freely. They were fed at a constant room temperature (25°C) with a 12-h light (7:00 AM)/dark (7:00 PM) cycle. All the mice were monitored at least daily, and no adverse events were observed. In general, the db/db mice show a high food intake at 4-week old and become obese and develop type 2 diabetes at 8-week age. Postprandial 2 h blood glucose was assessed and mice with the similar degree of hyperglycemia and body weight were randomized into different groups in order to get a similar average PBG in each group.
Diabetic mice in group of four were treated by gavage with vehicle (0.5% carboxymethylcellulose, CMC, Sigma), WB403 50, 100 mg/kg or sitagliptin at 100 mg/kg daily for 4 weeks in db/db mice (n = 5 with chow diet), and 8 weeks in HFD/STZ mice (n = 8 with HFD, additional normal mice group with chow diet). During the entire dosing period, body weight, food intake and water intake were monitored three times per week, while FBG and PBG were measured weekly. Overnight fasted mice received an oral glucose challenge at 2 g/kg and postprandial 2 h blood glucose was measured. Animals were treated and assessed in the order of the vehicle, WB403 50, 100 mg/kg and sitagliptin 100 mg/kg group.
Fig 3 Effects of WB403 treatment in db/db mice. (A, B) FBG and PBG measured every week during the 4-week treatment period. (C, D) Serum levels of HbA1c, measured at the end of intervention by Adicon Clinical Laboratories (Shanghai, China) using an immunoturbidimetric assay on Beckman AU680 biochemical analyzer. (E) Average daily food intake per mouse during the treatment period. Data was collected three times per week. (F) Average daily water intake per mouse. (G) Body weight from different groups of mice. (H) Serum levels of insulin were measured at the end of intervention. Values are mean ± SEM (n = 5). *p<0.05, **p<0.01, ***p<0.001 vs. vehicle group.

The next data set has as its system primary enterocytes. The experiment in a line: active GLP-1 secretion in primary enterocytes. It is filed as cell-based. The conditions noted are these: Fig 1G. Here is the method: Endocrine differentiation was induced by seeding NCI-H716 cells in plates coated with Matrigel (Becton Dickinson). Cells were washed with RPMI-1640 medium without FBS and incubated in the same medium containing indicated compounds at 10 μmol/l. The condition medium was collected after 30 min. GLP-1 secretion in MIN6 or primary enterocytes was conducted similarly. To isolate primary enterocytes, ileum or colon was cut into 2 cm length, rinsed by PBS (pH7.2∼7.4) before dispersed in 10 mmol/l EDTA/PBS (pH7.4) for 15 min at room temperature, followed by pipetting up and down. Enterocytes were collected by filtration through a 70 μm cell strainer. To study the effect of WB403 on GLP-1 secretion in vivo, mice in group of three were fasted overnight and orally received 0, 50, 100 mg/kg of WB403 dispersed in 0.5% CMC with a DPP-4 inhibitor (5 mg/kg). There were 5 animals in each group. 2 g/kg glucose was administrated 30 min later and blood was collected 10 min after glucose challenge.
The GLP-1 (active) ELISA kit was purchased from Millipore, and insulin ELISA kit was from Mercodia. For quantitative determination of cAMP, a competitive enzyme immunoassay kit from R&D system was used. All immunoassays were performed according to manufacturers’ instructions.

[1] abbreviates: db/db mice, 50, 100 mg/kg daily by gavage, after one week.
[2] abbreviates: db/db mice, end of 4-week treatment.

Entries after “also recorded” stand apart in the source; their conditions may differ.

As for `CCc1cc(-c2nc(C)c(COCc3ccc(Br)cc3)s2)ccn1` [WB403, 4-(5-((4-bromobenzyloxy)-methyl)-4-methylthiazol-2-yl)-2-ethylpyridine], at hGPR120, the “hGPR120-Ca2+ activation (calcium mobilization)” value is on record as “neither did it exhibit significant effect; also recorded: no significant effect”. Further, the “signs of toxicity in tissue sections (H&E)” value with ICR mice is “did not show obvious signs of toxicity”. Besides, in the data set on db/db mice (db/db mice, 4-week treatment), the body weight entry is recorded as “did not vary significantly”, the food intake entry was “did not vary significantly” and the water intake result is “decreased”. In the data set on db/db mice (setting [1]), the FBG vs vehicle entry is listed as “significantly decreased” and the PBG vs vehicle result is listed as “significantly decreased”. Besides, in the data set on db/db mice (setting [2]), the “HbA1c levels vs vehicle” value is on record as “significantly lower” and the serum insulin levels result is “higher insulin levels”. The “GLP-1 stimulation in primary enterocytes” value in the data set with primary enterocytes is listed as “outstanding effect in GLP-1 stimulation”.
